Results reported in publication PMC3546743 (2012).

Tested on: modified aptamer M3.2 (DNA, aptamer) ACTCATCTGTGAAGAGAAGCAGCACAGAGGTCAGATGTCCGTCAGCCCCGATCGCCATCCAGGGACTCCCCCCTATGCCTATGCGTGCTACCGTGAA
Assay: gold nanoparticle colorimetric assay, UV-Vis
Conditions: 250 mM NaCl; 1 µL of 50 mM compound in DMF added; room temperature; thiol oligos on gold nanoparticles

Row | Compound | binding
1 | O=C(N[C@H](CO)[C@H](O)c1ccc([N+](=O)[O-])cc1)C(Cl)Cl | no
2 | NCCc1c[nH]c2ccccc12 | no
3 | CN(C)Cc1c[nH]c2ccccc12 | no

The next lines start with the values.

Row | binding | Compound
4 | no | CC(C)[C@H]1C(=O)N2CCC[C@H]2[C@]2(O)O[C@](NC(=O)[C@@H]3C=C4c5cccc6[nH]cc(c56)C[C@H]4N(C)C3)(C(C)C)C(=O)N12
5 | yes | CN1C[C@H](CNC(=O)OCc2ccccc2)C[C@@H]2c3cccc4c3c(cn4C)C[C@H]21
6 | no | N[C@@H](Cc1c[nH]c2ccccc12)C(=O)O
7 | yes | CN1C[C@H](CN)C[C@@H]2c3cccc4c3c(cn4C)C[C@H]21
